# Test results: patent US20120197004A1, “NOVEL ANTI-MICROBIAL PEPTIDOMIMETIC COMPOUNDS AND METHODS TO CALCULATE ANTI-MICROBIAL ACTIVITY” (priority 2006, published 2012)
# Like-named read-outs stand apart in the source and are kept apart here. Where a SMILES comes first, the peptide text is derived from it. [ ]: non-standard residue; d: D form. ξ: configuration not given here. Oic = O=C(O)[C@@H]1C[C@@H]2CCCC[C@@H]2N1; Tic = O=C(O)[C@@H]1Cc2ccccc2CN1; ξTic = O=C(O)C1Cc2ccccc2CN1; ξOic = O=C(O)C1CC2CCCCC2N1; GABA = NCCCC(=O)O
# Experiments:
# [1] = tested on: Plasmodium falciparum W2 (CDC Indochina III chloroquine, quinine, pyrimethamine and sulfadoxine-resistant)
# [2] = tested on: Plasmodium falciparum D6 (CDC Sierra Leone, mefloquine resistant)
# [3] = tested on: Salmonella typhimurium (ATCC 13311); settings: for MIC Salmonella typhimurium: ATCC 13311
# [4] = tested on: Staphylococcus aureus Methicillin/Gentamicin/Tetracycline Resistant (ATCC 33592); settings: for Minimum Inhibitory Concentration Staphylococcus aureus ME/GM/TC resistant: in vitro MIC, tested at 100, 30, 10, 3, 1, 0.3 and 0.1 μM in 1% DMSO
# red blood cells [5] = settings: 100 μM
# [6] = tested on: Mycobacterium ranae (ATCC 110); settings: ATCC 110
# [7] = tested on: Bacillus subtillis (ATCC 43223); settings: ATCC 43223
# in vitro [8] = settings: monkey, microsomes, pH 7.4
# in vitro [9] = settings: dog, microsomes, pH 7.4
# in vitro [10] = settings: rat, microsomes, pH 7.4
# in vitro [11] = settings: mouse, microsomes, pH 7.4
# red blood cells [12] = test: Hemolytic studies; settings: for % hemolysis / Hemolytic activity: concentration not given
# F. tularensis SCHU-S4 = settings: in vitro MIC
# Bacillus anthracis Ames = settings: in vitro MIC; listed as 24
# B. melitensis 16M = settings: in vitro MIC
# Plague CO92 = settings: in vitro MIC; listed as 24
# in vitro [13] = settings: human, microsomes, pH 7.4
# [14] = Metabolic stability, dog liver microsomes
# [15] = Metabolic stability, rat liver microsomes
# [16] = Metabolic stability, human liver microsomes; settings: for % remaining at time T, Human Liver: 0.5 mg/mL microsomes
# [17] = Metabolic stability, mouse liver microsomes
# [18] = Metabolic stability, monkey liver microsomes
# [19] = Minimal Inhibitory Concentration, tested at 100-0.1 in 1% DMSO
# [20] = liver microsomes, 1 μM, T = 60 min
smiles,measurement,setting,value
"CC(C)C[C@H](NC(=O)CNC(=O)[C@@H]1C[C@@H]2CCCC[C@@H]2N1C(=O)[C@@H]1Cc2ccccc2CN1C(=O)[C@H](CC(C)C)NC(=O)CNC(=O)[C@@H]1C[C@@H]2CCCC[C@@H]2N1C(=O)[C@@H]1Cc2ccccc2CN1C(=O)[C@H](CCCCN)NC(=O)CNC(=O)[C@@H]1C[C@@H]2CCCC[C@@H]2N1C(=O)[C@@H]1Cc2ccccc2CN1C(=O)[C@H](CC(C)C)NC(=O)CNC(=O)[C@@H]1C[C@@H]2CCCC[C@@H]2N1C(=O)[C@@H]1Cc2ccccc2CN1C(=O)[C@H](CCCCN)NC(=O)CNC(=O)[C@@H]1C[C@@H]2CCCC[C@@H]2N1C(=O)[C@@H]1Cc2ccccc2CN1C(=O)[C@H](CC(C)C)NC(=O)CNC(=O)[C@@H]1C[C@@H]2CCCC[C@@H]2N1C(=O)[C@@H]1Cc2ccccc2CN1C(=O)[C@H](CC(C)C)NC(=O)CNC(=O)[C@H](CCCCN)NC(=O)CN)C(=O)N[C@@H](CCCNC(=N)N)C(N)=O [WRFK-3, NH2-GKGL-Tic-Oic-GL-Tic-Oic-GK-Tic-Oic-GL-Tic-Oic-GK-Tic-Oic-GL-Tic-Oic-GLR-CONH2] (H-GKGL[Tic][Oic]GL[Tic][Oic]GK[Tic][Oic]GL[Tic][Oic]GK[Tic][Oic]GL[Tic][Oic]GLR-NH2)",IC50 * W2,[1],7.2 µg/mL
same,IC50 * D6,[2],5.2 µg/mL
same,Minimum Inhibitory Concentration Salmonella typhimurium,"[3]; in vitro MIC, tested at 100, 30, 10, 3, 1, 0.3 and 0.1 μM in 1% DMSO",not active
same,p(MIC) Staphylococcus aureus ME/GM/TC resistant,[4]; -log(MIC),4.00
same,MIC Staphylococcus aureus ME/GM/TC resistant,[4]; [19],100.00 µM
same,Minimum Inhibitory Concentration Staphylococcus aureus ME/GM/TC resistant,[4],100 µM
same,Actual Bioactivity,[4]; p(MIC) used in Staphylococcus aureus QSAR model,4.000
same,% hemolysis 100/25 μM (first value),red blood cells [5],100%
"CC(=O)NCC(=O)N[C@@H](Cc1ccccc1)C(=O)N1Cc2ccccc2CC1C(=O)N1C(C(=O)NCC(=O)N[C@@H](CCCCN)C(=O)N2Cc3ccccc3CC2C(=O)N2C(C(=O)NCC(=O)N[C@@H](Cc3ccccc3)C(=O)N3Cc4ccccc4CC3C(=O)N3C(C(=O)NCC(=O)N[C@@H](CCCCN)C(=O)N4Cc5ccccc5CC4C(=O)N[C@@H](CCCCN)C(=O)N[C@@H](CCCCN)C(=O)N[C@@H](CCCCN)C(=O)N[C@@H](CCCCN)C(N)=O)CC4CCCCC43)CC3CCCCC32)CC2CCCCC21 (stereo partly drawn) [FKAB-1G, Ac-GF-Tic-Oic-GK-Tic-Oic-GF-Tic-Oic-GK-Tic-KKKK-CONH2] (Ac-GF[ξTic][ξOic]GK[ξTic][ξOic]GF[ξTic][ξOic]GK[ξTic]KKKK-NH2)",MIC Salmonella typhimurium,[3],10 µM
same,MIC Staphylococcus aureus ME/GM/TC resistant,[4]; [19],3.00 µM
same,Minimum Inhibitory Concentration Staphylococcus aureus ME/GM/TC resistant,[4],3 µM
same,MIC Mycobacterium ranae,[6],10.00 µM
same,MIC Bacillus Subtillis,[7],1.00 µM
same,% hemolysis 100/25 μM (first value),red blood cells [5],14%
same,"remaining at 0.25 h, 1 μM",in vitro [8],55%
same,"remaining at 0.5 h, 1 μM",in vitro [8],73%
same,"remaining at 1 h, 1 μM",in vitro [8],91%
same,"remaining at 0.5 h, 1 μM",in vitro [9],50%
same,"remaining at 1 h, 1 μM",in vitro [9],63%
same,"remaining at 0.25 h, 1 μM",in vitro [10],71%
same,"remaining at 0.5 h, 1 μM",in vitro [10],79%
same,"remaining at 1 h, 1 μM",in vitro [10],90%
same,"remaining at 0.25 h, 1 μM",in vitro [11],80%
same,"remaining at 0.5 h, 1 μM",in vitro [11],10%
same,"remaining at 1 h, 1 μM",in vitro [11],12%
same,% hemolysis / Hemolytic activity,red blood cells [12],14%
same,% hemolysis / Hemolytic activity,red blood cells [12]; listed as 25,14%
"CC(C)C[C@H](NC(=O)[C@@H](N)CCCCN)C(=O)N1Cc2ccccc2CC1C(=O)N1C(C(=O)N[C@@H](CCCCN)C(=O)N2Cc3ccccc3CC2C(=O)N2C(C(=O)N[C@@H](Cc3ccccc3)C(=O)N3Cc4ccccc4CC3C(=O)N3C(C(=O)N[C@@H](CCCCN)C(=O)N4Cc5ccccc5CC4C(=O)N4C(C(=O)N[C@@H](Cc5ccccc5)C(=O)N5Cc6ccccc6CC5C(=O)N5C(C(=O)N[C@@H](CCCCN)C(=O)N6Cc7ccccc7CC6C(=O)N6C(C(=O)N[C@@H](CCCCN)C(=O)N[C@@H](CCCNC(=N)N)C(N)=O)CC7CCCCC76)CC6CCCCC65)CC5CCCCC54)CC4CCCCC43)CC3CCCCC32)CC2CCCCC21 (stereo partly drawn) [FKAB-1F, NH2-KL-Tic-Oic-K-Tic-Oic-F-Tic-Oic-K-Tic-Oic-F-Tic-Oic-K-Tic-Oic-KR-CONH2] (H-KL[ξTic][ξOic]K[ξTic][ξOic]F[ξTic][ξOic]K[ξTic][ξOic]F[ξTic][ξOic]K[ξTic][ξOic]KR-NH2)",MIC Staphylococcus aureus ME/GM/TC resistant,[4]; [19],10.00 µM
same,Minimum Inhibitory Concentration Staphylococcus aureus ME/GM/TC resistant,[4],10 µM
same,MIC Mycobacterium ranae,[6],30.00 µM
same,Minimum Inhibitory Concentration Mycobacterium ranae,[6],30 µM
same,MIC Bacillus Subtillis,[7],1.00 µM
same,% hemolysis 100/25 μM (first value),red blood cells [5],63%
same,Minimum Inhibitory Concentration F. tularensis SCHU-S4,F. tularensis SCHU-S4,>500 µg/mL
same,Minimum Inhibitory Concentration Bacillus anthracis Ames,Bacillus anthracis Ames,0.98 µg/mL
same,Minimum Inhibitory Concentration B. melitensis 16M,B. melitensis 16M,>500 µg/mL
same,Minimum Inhibitory Concentration Plague CO92,Plague CO92,>500 µg/mL
same,"remaining at 0.25 h, 1 μM",in vitro [13],99%
same,"remaining at 0.25 h, 1 μM",in vitro [8],28%
same,"remaining at 0.5 h, 1 μM",in vitro [8],29%
same,"remaining at 1 h, 1 μM",in vitro [8],9%
same,"remaining at 0.5 h, 1 μM",in vitro [9],27%
same,"remaining at 1 h, 1 μM",in vitro [9],8%
same,"remaining at 0.25 h, 1 μM",in vitro [10],113%
same,"remaining at 0.5 h, 1 μM",in vitro [10],120%
same,"remaining at 0.5 h, 1 μM",in vitro [11],45%
same,"remaining at 1 h, 1 μM",in vitro [11],22%
"CC(=O)NCCCC(=O)N[C@@H](Cc1ccccc1)C(=O)N1Cc2ccccc2CC1C(=O)N1C(C(=O)NCCCC(=O)N[C@@H](CCCCN)C(=O)N2Cc3ccccc3CC2C(=O)N2C(C(=O)NCCCC(=O)N[C@@H](Cc3ccccc3)C(=O)N3Cc4ccccc4CC3C(=O)N3C(C(=O)NCCCC(=O)N[C@@H](CCCCN)C(=O)N4Cc5ccccc5CC4C(=O)N[C@@H](CCCCN)C(=O)N[C@@H](CCCCN)C(=O)N[C@@H](CCCCN)C(=O)N[C@@H](CCCCN)C(N)=O)CC4CCCCC43)CC3CCCCC32)CC2CCCCC21 (stereo partly drawn) [FKAB-1Gd, Ac-Gaba-F-Tic-Oic-Gaba-K-Tic-Oic-Gaba-F-Tic-Oic-Gaba-K-Tic-KKKK-CONH2] (Ac-[GABA]F[ξTic][ξOic][GABA]K[ξTic][ξOic][GABA]F[ξTic][ξOic][GABA]K[ξTic]KKKK-NH2)",MIC Salmonella typhimurium,[3],10 µM
same,MIC Staphylococcus aureus ME/GM/TC resistant,[4]; ATCC 33592,100.00 µM
same,MIC Mycobacterium ranae,[6],10.00 µM
same,Minimum Inhibitory Concentration Mycobacterium ranae,[6],10 µM
same,MIC Bacillus Subtillis,[7],1.00 µM
same,% hemolysis 100/25 μM (first value),red blood cells [12]; 100 μM,10.8%/
same,"% remaining, Dog Liver T = 15","[14]; T = 15 min, 1 μM, 0.5 mg/mL microsomes",35%
same,"remaining at 0.5 h, 1 μM","[14]; dog, microsomes, pH 7.4",34%
same,"remaining at 1 h, 1 μM","[14]; dog, microsomes, pH 7.4",55%
same,metabolic stability T = 60 min dog,[14]; [20],High
same,metabolic stability T = 60 min rat,[15]; [20],high
same,"remaining at 0.25 h, 1 μM","[15]; rat, microsomes, pH 7.4",67%
same,"remaining at 0.5 h, 1 μM","[15]; rat, microsomes, pH 7.4",78%
same,"remaining at 1 h, 1 μM","[15]; rat, microsomes, pH 7.4",83%
same,"remaining at 0.25 h, 1 μM","[16]; human, microsomes, pH 7.4",106%
same,metabolic stability T = 60 min human,[16]; [20],high
same,"% remaining at time T, Human Liver","[16]; second human column (T = 30 min, head not given), 1 μM",94%
same,"% remaining at time T, Human Liver","[16]; third human column (T = 60 min, head not given), 1 μM",114%
same,metabolic stability T = 60 min mouse,[17]; [20],very low
same,"remaining at 0.25 h, 1 μM","[17]; mouse, microsomes, pH 7.4",90%
same,"remaining at 0.5 h, 1 μM","[17]; mouse, microsomes, pH 7.4",7%
same,"remaining at 1 h, 1 μM","[17]; mouse, microsomes, pH 7.4",9%
same,metabolic stability T = 60 min monkey,[18]; [20],high
same,"remaining at 0.25 h, 1 μM","[18]; monkey, microsomes, pH 7.4",16%
same,"remaining at 0.5 h, 1 μM","[18]; monkey, microsomes, pH 7.4",25%
same,"remaining at 1 h, 1 μM","[18]; monkey, microsomes, pH 7.4",76%
"CC(C)C[C@H](NC(=O)CNC(=O)[C@H](CCCCN)NC(=O)CN)C(=O)N1Cc2ccccc2CC1C(=O)N1C(C(=O)NCC(=O)N[C@@H](CCCCN)C(=O)N2Cc3ccccc3CC2C(=O)N2C(C(=O)NCC(=O)N[C@@H](Cc3ccccc3)C(=O)N3Cc4ccccc4CC3C(=O)N3C(C(=O)NCC(=O)N[C@@H](CCCCN)C(=O)N4Cc5ccccc5CC4C(=O)N4C(C(=O)NCC(=O)N[C@@H](Cc5ccccc5)C(=O)N5Cc6ccccc6CC5C(=O)N5C(C(=O)NCC(=O)N[C@@H](CCCCN)C(=O)N6Cc7ccccc7CC6C(=O)N6C(C(=O)NCC(=O)N[C@@H](CCCCN)C(=O)N[C@@H](CCCNC(=N)N)C(N)=O)CC7CCCCC76)CC6CCCCC65)CC5CCCCC54)CC4CCCCC43)CC3CCCCC32)CC2CCCCC21 (stereo partly drawn) [WRFK-1, NH2-GKGL-Tic-Oic-GK-Tic-Oic-GF-Tic-Oic-GK-Tic-Oic-GF-Tic-Oic-GK-Tic-Oic-GKR-CONH2] (H-GKGL[ξTic][ξOic]GK[ξTic][ξOic]GF[ξTic][ξOic]GK[ξTic][ξOic]GF[ξTic][ξOic]GK[ξTic][ξOic]GKR-NH2)",IC50 * W2,[1],5.7 µg/mL
same,IC50 * D6,[2],7.3 µg/mL
same,MIC Staphylococcus aureus ME/GM/TC resistant,[4]; [19],10.00 µM
same,Minimum Inhibitory Concentration Staphylococcus aureus ME/GM/TC resistant,[4],10 µM
